Experimental data: patent US20070105864A1, “Methods for inhibiting protein kinases” (Schering Corporation, priority 2005, published 2007)
pIC50: −log10 of the molar value. Like-named read-outs stand apart in the source and are kept apart here.

What was measured:
recombinant His-CHK1 = biological target: T1, recombinant His-CHK1 (Homo sapiens, UniProt O14757); test: CHK1 SPA Assay; assay type: biochemical; details: read-out: CHK-1 IC50
T1 construct: His-CHK1, In House Lot P976, MW ˜30 KDa, stored at −80 °C; fused on or other part: His tag
T1 sequence (O14757 1-265 limits assumed): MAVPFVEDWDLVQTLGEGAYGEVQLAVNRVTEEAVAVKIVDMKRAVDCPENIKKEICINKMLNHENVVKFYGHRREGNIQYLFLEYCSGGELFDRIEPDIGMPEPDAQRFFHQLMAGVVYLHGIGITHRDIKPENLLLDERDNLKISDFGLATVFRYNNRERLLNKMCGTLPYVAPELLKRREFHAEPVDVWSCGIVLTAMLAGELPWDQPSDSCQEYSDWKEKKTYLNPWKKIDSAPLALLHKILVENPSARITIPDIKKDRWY
Protocol: An in vitro assay was developed that utilizes recombinant His-CHK1 expressed in the baculovirus expression system as an enzyme source and a biotinylated peptide based on CDC25C as substrate (biotin-[…]).
1) CDC25C Ser 216 C-term Biotinylated peptide substrate (25 mg), stored at −20 °C, Custom Synthesis by Research Genetics: biotin-[…] 2595.4 MW
2) His-CHK1 In House lot P976, 235 ug/mL, stored at −80 °C.
1) Kinase Buffer: 50 mM Tris pH 8.0; 10 mM MgCl2; 1 mM DTT
2) His-CHK1, In House Lot P976, MW ˜30 KDa, stored at −80 °C. […] For 1 plate (100 r×n): dilute 8 μL of 235 μg/mL (7.83 uM) stock in 2 mL Kinase Buffer. This makes a 31 nM mixture. Add 20 μL/well. This makes a final reaction concentration of 6 nM.
3) CDC25C Biotinylated peptide.
Dilute CDC25C to 1 mg/mL (385 uM) stock and store at −20° C. For 1 plate (100 r×n): dilute 10 1L of 1 mg/mL peptide stock in 2 ml Kinase Buffer. This gives a 1.925 μM mix. Add 20 1L/r×n. This makes a final reaction concentration of 385 nM.
For 1 plate (100 r×n): dilute 10 μL of 1 mM ATP (cold) stock and 2 uL fresh P33-ATP (20 μCi) in 5 ml Kinase Buffer. This gives a 2 μM ATP (cold) solution; add 50 μl/well to start the reaction. Final volume is 100 μl/r×n so the final reaction concentrations will be 1 μM ATP (cold) and 0.2 uCi/r×n.
For 1 plate add: To 10 mL Wash Buffer 2 (2M NaCl 1% H3PO4): 1 mL SPA bead slurry (50 mg); Add 100 μL/well
6) Wash buffer 1: 2 M NaCl
7) Wash buffer 2: 2 M NaCl, 1% H3PO4
Dispense 10 μl/r×n to appropriate wells. Add 10 μL 10% DMSO to positive (CHK1+CDC25C+ATP) and negative (CHK1+ATP only) control wells. 2) Thaw enzyme on ice—dilute enzyme to proper concentration in kinase buffer (see Reaction Mixtures) and dispense 20 μl to each well. 3) Thaw the Biotinylated substrate on ice and dilute in kinase buffer (see Reaction Mixtures). Add 20 μL/well except to negative control wells. Instead, add 20 uL Kinase Buffer to these wells. 4) Dilute ATP (cold) and P33-ATP in kinase buffer (see Reaction Mixtures). Add 50 μL/well to start the reaction. 5) Allow the reaction to run for 2 hours at room temperature. 6) Stop reaction by adding 100 uL of the SPA beads/stop solution (see Reaction Mixtures) and leave to incubate for 15 minutes before harvest 7) Place a blank Packard GF/B filter plate into the vacuum filter device (Packard plate harvester) and aspirate […] water through to wet the system. 8) Take out the blank and put in the Packard GF/B filter plate. 9) Aspirate the reaction through the filter plate. 10) Wash: 200 ml each wash; 1× with 2M NaCl; 1× with 2M NaCl/1% H3PO4 11) Allow filter plate to dry 15 min. 12) Put TopSeal-A adhesive on top of filter plate. 13) Run filter plate in Top Count
Settings: • Data mode: CPM • Radio nuclide: Manual SPA:P33 • Scintillator: Liq/plast • Energy Range: Low
(§1) IC50 DETERMINATIONS: Dose-response curves were plotted from inhibition data generated, each in duplicate, from 8 point serial dilutions of inhibitory compounds. Concentration of compound was plotted against % kinase activity, calculated by CPM of treated samples divided by CPM of untreated samples. To generate IC50 values, the dose-response curves were then fitted to a standard sigmoidal curve and IC50 values were derived by nonlinear regression analysis.

Cyclin E/CDK2 = biological target: T2, Cyclin E/CDK2 (Homo sapiens, UniProt P24941); test: CDK2 Assay (Cyclin E/CDK2 in vitro kinase assay); assay type: biochemical
T2 construct: made in house; host or cells: SF9 cells (baculovirus co-infection)
From the text: BACULOVIRUS CONSTRUCTIONS: Cyclin E was cloned into pVL1393 (Pharmingen, La Jolla, Calif.) by PCR, with the addition of 5 histidine residues at the amino-terminal end to allow purification on nickel resin. The expressed protein was approximately 45 kDa. CDK2 was cloned into pVL1393 by PCR, with the addition of a haemaglutinin epitope tag at the carboxy-terminal end (YDVPDYAS). The expressed protein was approximately 34 kDa in size.
ENZYME PRODUCTION: Recombinant baculoviruses expressing cyclin E and CDK2 were co-infected into SF9 cells at an equal multiplicity of infection (MOI=5), for 48 hrs. Cells were harvested by centrifugation at 1000 RPM for 10 minutes, then pellets lysed on ice for 30 minutes in five times the pellet volume of lysis buffer containing 50 mM Tris pH 8.0, 1 50 mM NaCl, 1% NP40, 1 mM DTT and protease inhibitors (Roche Diagnostics GmbH, Mannheim, Germany). Lysates were spun down at 15000 RPM for 10 minutes and the supernatant retained. 5 ml of nickel beads (for one liter of SF9 cells) were washed three times in lysis buffer (Qiagen GmbH, Germany). Imidazole was added to the baculovirus supernatant to a final concentration of 20 mM, then incubated with the nickel beads for 45 minutes at 4° C. Proteins were eluted with lysis buffer containing 250 mM imidazole. Eluate was dialyzed overnight in 2 liters of kinase buffer containing 50 mM Tris pH 8.0, 1 mM DTT, 10 mM MgCl2, 100 uM sodium orthovanadate and 20% glycerol. Enzyme was stored in aliquots at −70° C.
IN VITRO KINASE ASSAY: Cyclin E/CDK2 kinase assays were performed in low protein binding 96-well plates (Corning Inc, Corning, N.Y.). Enzyme was diluted to a final concentration of 50 μg/ml in kinase buffer containing 50 mM Tris pH 8.0, 10 mM MgCl2, 1 mM DTT, and 0.1 mM sodium orthovanadate. The substrate used in these reactions was a biotinylated peptide derived from Histone H1 (from Amersham, UK). The substrate was thawed on ice and diluted to 2 μM in kinase buffer. Compounds were diluted in 10% DMSO to desirable concentrations. For each kinase reaction, 20 μl of the 50 µg/ml enzyme solution (1 μg of enzyme) and 20 μl of the 2 μM substrate solution were mixed, then combined with 10 μl of diluted compound in each well for testing. The kinase reaction was started by addition of 50 μl of 2 μM ATP and 0.1 μCi of 33P-ATP (from Amersham, UK). The reaction was allowed to run for 1 hour at room temperature. The reaction was stopped by adding 200 μl of stop buffer containing 0.1% Triton X-100, 1 mM ATP, 5 mM EDTA, and 5 mg/ml streptavidine coated SPA beads (from Amersham, UK) for 15 minutes. The SPA beads were then captured onto a 96-well GF/B filter plate (Packard/Perkin Elmer Life Sciences) using a Filtermate universal harvester (Packard/Perkin Elmer Life Sciences.). Non-specific signals were eliminated by washing the beads twice with 2M NaCl then twice with 2 M NaCl with 1% phosphoric acid. The radioactive signal was then measured using a TopCount 96 well liquid scintillation counter (from Packard/Perkin Elmer Life Sciences).
as §1

CCN(CC)S(=O)(=O)c1sc(Nc2nc(C3=CCCNC3)cn3c(-c4cnn(C)c4)cnc23)cc1C was tested, and the pIC50 (recombinant His-CHK1) was 7.72 and the pIC50 (Cyclin E/CDK2; read-out: CDK2 IC50) was 4.74.
With Cn1cc(-c2cnc3c(Nc4ccc(-n5ccnc5)cc4)nc(C4=CCNCC4)cn23)cn1 the pIC50 (recombinant His-CHK1) was 6.74 and the pIC50 (Cyclin E/CDK2; CDK2 IC50) was 4.71.
With CNCCCc1cn2c(-c3cnn(C)c3)cnc2c(Nc2sncc2C)n1 the pIC50 (recombinant His-CHK1) was 8.10 and the pIC50 (Cyclin E/CDK2; read-out: CDK2 IC50) was 5.24.
For Cn1cc(-c2cnc3c(Nc4ccc(-n5ccnc5)cc4)nc(C4=CCCNC4)cn23)cn1 [drawing 1440], the pIC50 (recombinant His-CHK1) was 7.01 and the pIC50 (Cyclin E/CDK2; read-out: CDK2 IC50) was 4.90.
Compound Cc1cc(Nc2nc(CCN)cn3c(-c4cnn(C)c4)cnc23)sc1C(N)=O has a pIC50 (recombinant His-CHK1) of 7.72 and a pIC50 (Cyclin E/CDK2; read-out: CDK2 IC50) of 4.75.
Cc1cc(Nc2nc(C3=CCCNC3)cn3c(-c4cnn(C)c4)cnc23)sc1S(=O)(=O)C(C)C was tested, and the pIC50 (recombinant His-CHK1) was 8.30 and the pIC50 (Cyclin E/CDK2; read-out: CDK2 IC50) was 5.32.
Cc1cc(Nc2nc(C3CCCNC3)cn3c(-c4cnn(C)c4)cnc23)sn1 (stereo not drawn) was tested, and the pIC50 (recombinant His-CHK1) was 7.89 and the pIC50 (Cyclin E/CDK2; read-out: CDK2 IC50) was 5.96.
CCNC(=O)c1sc(Nc2nc(CCN)cn3c(-c4cnn(C)c4)cnc23)cc1C was tested, and the pIC50 (recombinant His-CHK1) was 7.82 and the pIC50 (Cyclin E/CDK2; read-out: CDK2 IC50) was 4.38.
For Cc1cc(Nc2nc(C3=CCCNC3)cn3c(-c4cnn(C)c4)cnc23)sc1S(=O)(=O)N1CCCC1, the pIC50 (recombinant His-CHK1) was 8.22 and the pIC50 (Cyclin E/CDK2; read-out: CDK2 IC50) was 5.29.
